According to patent US11484708B2, “Methods and devices for surgical pre-treatment” (Vomaris Innovations, Inc., priority 2014, dated 2022):

How the values were obtained:
HUVEC cells [1] = experiment: EF-induced elongation of endothelial cells (long:short axis ratio); assay type: cell-based, human; details: for long:short axis ratio in EF-treated cells: inhibitor 50 μM, vs control
Experimental: Tissue culture reagents were obtained from Life Technologies UK. […] Rhodamine-phalloidin (E3478) was obtained from Molecular Probes (Leiden, The Netherlands) and anti-tubulin conjugated with FITC was obtained from Sigma. The HUVEC cell line from ATCC was used prior to passage 10. Dulbecco's modified Eagle's medium (DMEM) with 10% fetal bovine serum (FBS) was used for culture cells and EF exposure experiments.
HUVEC cells were seeded in a trough formed by two parallel (1 cm apart) strips of glass coverslip (No. 1, length of 22 mm) fixed to the base of the dish with silicone grease. Scratch lines were made perpendicular to the long axis of the chamber with a fine sterile needle and used as reference marks for directed cell migration. Cells were incubated for 24-48 hours (37° C., 5% CO2) before a roof coverslip was applied and sealed with silicone grease. The final dimensions of the chamber, through which current was passed, were 22×10×0.2 mm. Agar-salt bridges not less than 15 cm long were used to connect silver/silver-chloride electrodes in beakers of Steinberg's solution (58 mM NaCl, 0.67 mM KCl, 0.44 mM Ca(NO3)2, 1.3 mM MgSO4, 4.6 mM Trizma base, pH 7.8-8.0), to pools of excess culture medium at either side of the chamber. Field strengths were measured directly at the beginning of, the end of and during each experiment. No fluctuations in field strength were observed. […] (50 μM), the Rho kinase inhibitor Y27632 (50 μM), both Akt and Rho kinase inhibitors (10 μM each) or latrunculin (50 nM) for 1 hour before EF stimulation. […]
A series of images was taken with an image analyser immediately before EF exposure and at 4, 8 and 24 hours of EF exposure. Cell orientation was quantified as an orientation index (Oi), which is defined as Oi=cos2(α), where α is the angle formed by the long axis of a cell with a line drawn perpendicular to the field lines. […] The significance of this two-dimensional orientation distribution against randomness was calculated using Rayleigh's distribution. A long:short axis ratio was calculated for assessment of elongation.

HUVEC cells [2] = experiment: EF-induced reorientation of endothelial cells (orientation index Oi); assay type: cell-based, human
Experimental: HUVEC cells were seeded in a trough formed by two parallel (1 cm apart) strips of glass coverslip (No. 1, length of 22 mm) fixed to the base of the dish with silicone grease. Scratch lines were made perpendicular to the long axis of the chamber with a fine sterile needle and used as reference marks for directed cell migration. Cells were incubated for 24-48 hours (37° C., 5% CO2) before a roof coverslip was applied and sealed with silicone grease. The final dimensions of the chamber, through which current was passed, were 22×10×0.2 mm. Agar-salt bridges not less than 15 cm long were used to connect silver/silver-chloride electrodes in beakers of Steinberg's solution (58 mM NaCl, 0.67 mM KCl, 0.44 mM Ca(NO3)2, 1.3 mM MgSO4, 4.6 mM Trizma base, pH 7.8-8.0), to pools of excess culture medium at either side of the chamber. Field strengths were measured directly at the beginning of, the end of and during each experiment. […] (50 μM), the Rho kinase inhibitor Y27632 (50 μM), both Akt and Rho kinase inhibitors (10 μM each) or latrunculin (50 nM) for 1 hour before EF stimulation. The same concentration of drug was present during EF exposure in a CO2 incubator.
A series of images was taken with an image analyser immediately before EF exposure and at 4, 8 and 24 hours of EF exposure. Cell orientation was quantified as an orientation index (Oi), which is defined as Oi=cos2(α), where α is the angle formed by the long axis of a cell with a line drawn perpendicular to the field lines. A cell with its long axis parallel to the vector of the EF will have an Oi of −1, and a cell with its long axis exactly perpendicular to the EF vector will have an Oi of +1. […] The significance of this two-dimensional orientation distribution against randomness was calculated using Rayleigh's distribution. A long:short axis ratio was calculated for assessment of elongation.

Human keratinocytes = experiment: in vitro scratch assay (cell migration); assay type: cell-based
Source text: The in vitro scratch assay is an easy, low-cost and well-developed method to measure cell migration in vitro. The basic steps involve creating a “scratch” in a cell monolayer, capturing images at the beginning and at regular intervals during cell migration to close the scratch, and comparing the images to quantify the migration rate of the cells. Compared to other methods, the in vitro scratch assay is particularly suitable for studies on the effects of cell-matrix and cell-cell interactions on cell migration, mimic cell migration during wound healing in vivo and are compatible with imaging of live cells during migration to monitor intracellular events if desired. In addition to monitoring migration of homogenous cell populations, this method has also been adopted to measure migration of individual cells in the leading edge of the scratch.
Human keratinocytes were plated under plated under placebo or a LLEC system described herein (labeled “PROCELLERA®”). Cells were also plated under silver-only or zinc-only dressings. After 24 hours, the scratch assay was performed.
Cell culture—Immortalized HaCaT human keratinocytes were grown in Dulbecco's low-glucose modified Eagle's medium (Life Technologies, Gaithersburg, Md., U.S.A.) supplemented with 10% fetal bovine serum, 100 U/ml penicillin, and 100 μg/ml streptomycin. The cells were maintained in a standard culture incubator with humidified air containing 5% CO2 at 37° C.
Scratch assay—A cell migration assay was performed using culture inserts (IBIDI®, Verona, Wis.) according to the manufacturer's instructions. Cell migration was measured using time-lapse phase-contrast microscopy following withdrawal of the insert. Images were analyzed using the AxioVision Rel 4.8 software.
N-Acetyl Cysteine Treatment—Cells were pretreated with 5 mM of the thiol antioxidant N-acetylcysteine (Sigma) for 1 h before start of the scratch assay.
IGF-1 R inhibition—When applicable, cells were preincubated with 50 nM IGF-1 R inhibitor, picropodophyllin (Calbiochem, Mass.) just prior to the Scratch Assay. […]

[3] = inhibitor 50 μM, 1 hour before and during EF

1-L-6-hydroxymethyl-chiro-inositol 2-[(R)-2-O-methyl-3-O-octadecylcarbonate] [Akt inhibitor]
long:short axis ratio in EF-treated cells (HUVEC cells [1]): significantly decreased the long:short axis ratio
orientation response of cells in an EF (HUVEC cells [2]; [3]): significantly decreased the orientation response

COc1cc([C@@H]2c3cc4c(cc3[C@H](O)[C@H]3COC(=O)[C@@H]23)OCO4)cc(OC)c1OC [IGF-1 R inhibitor, picropodophyllin]
increased keratinocyte migration observed with LLEC, in presence of IGF-1 R inhibitor (Human keratinocytes; 50 nM picropodophyllin just prior to scratch assay): attenuated the increased keratinocyte migration

C/C1=C/C(=O)O[C@@H]2C[C@@H](CC[C@H](C)/C=C\C=C\CC1)O[C@@](O)([C@@H]1CSC(=O)N1)C2 [Latrunculin A]
EF-induced elongation response (HUVEC cells [1]; latrunculin 50 nM): completely abolished the EF-induced elongation response
orientation response of cells in an EF (HUVEC cells [2]; latrunculin 50 nM, P<0.001): suppressed the orientation response significantly

CC(=O)N[C@@H](CS)C(=O)O [N-Acetyl Cysteine, N-acetylcysteine]
increased keratinocyte migration observed with LLEC, in presence of N-acetyl cysteine (Human keratinocytes; 5 mM, 1 h pretreatment before scratch assay): failed to reproduce the increased migration

COc1cc2ncnc(Nc3ccc(Cl)cc3F)c2cc1OC [VEGFR inhibitor, 4-[(4′-chloro-2′-fluoro)phenylamino]-6,7-dimethoxyquinazoline]
orientation response of cells in an EF (HUVEC cells [2]; [3]): completely abolished the reorientation of cells in an EF

C[C@@H](N)[C@H]1CC[C@H](C(=O)Nc2ccncc2)CC1 [Y27632]
long:short axis ratio in EF-treated cells (HUVEC cells [1]): significantly decreased the long:short axis ratio

catalase
increased migration triggered by the LLEC, with over-expression of catalase (Human keratinocytes; HaCaT transfected with AdCatalase, 72 h): attenuated the increased migration
